PubChem BioAssay (NCI)
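Method: 48-hour compound exposure of cells in 96-well plates, five concentrations, linear interpolation of endpoints. GI50 is the concentration that inhibits growth by half. At the TGI there is no net growth.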

Key:
Experiment in all cases: NCI tumour cell line growth inhibition, 48 h
EKVX NSCLC = system: EKVX NSCLC
HOP-62 NSCLC = system: HOP-62 NSCLC
CAKI-1 renal = system: CAKI-1 renal
HCC-2998 colon = system: HCC-2998 colon
SNB-75 CNS = system: SNB-75 CNS
SK-MEL-2 melanoma = system: SK-MEL-2 melanoma
SK-MEL-5 melanoma = system: SK-MEL-5 melanoma
MDA-MB-231 breast = system: MDA-MB-231 breast
786-0 renal = system: 786-0 renal
SNB-19 CNS = system: SNB-19 CNS
IGROV1 ovarian = system: IGROV1 ovarian
SW-620 colon = system: SW-620 colon
UACC-62 melanoma = system: UACC-62 melanoma
COLO 205 colon = system: COLO 205 colon
DU-145 prostate = system: DU-145 prostate
SK-MEL-28 melanoma = system: SK-MEL-28 melanoma
SR leukemia = system: SR leukemia
KM12 colon = system: KM12 colon
RXF 393 renal = system: RXF 393 renal
NCI-H226 lung = system: NCI-H226 lung
T-47D breast = system: T-47D breast
ACHN renal = system: ACHN renal
SF-295 CNS = system: SF-295 CNS
HCT-116 colon = system: HCT-116 colon
HOP-92 NSCLC = system: HOP-92 NSCLC
U251 CNS = system: U251 CNS
K-562 leukemia = system: K-562 leukemia
M14 melanoma = system: M14 melanoma

`O=C(c1ccccc1)c1cc(Cl)ccc1OCCCCN1CCN(CCCCOc2ccc(Cl)cc2C(=O)c2ccccc2)CC1` showed a GI50 (EKVX NSCLC) of 10.8 µM, a TGI (EKVX NSCLC) of 24.7 µM and a GI50 (HOP-62 NSCLC) of 3.82 µM. The TGI (HOP-62 NSCLC) was 13.6 µM, the GI50 (CAKI-1 renal) was 4.08 µM and the TGI (CAKI-1 renal) was 15.1 µM. The GI50 (HCC-2998 colon) was 2.13 µM, the TGI (HCC-2998 colon) was 4.05 µM and the GI50 (SNB-75 CNS) was 6.98 µM. It also gave a TGI (SNB-75 CNS) of 24.9 µM, a GI50 (SK-MEL-2 melanoma) of 2.58 µM and a TGI (SK-MEL-2 melanoma) of 4.92 µM. It also gave a GI50 (SK-MEL-5 melanoma) of 2.34 µM, a TGI (SK-MEL-5 melanoma) of 4.88 µM and a GI50 (MDA-MB-231 breast) of 2.4 µM. The TGI (MDA-MB-231 breast) was 5.75 µM, the GI50 (786-0 renal) was 1.96 µM and the TGI (786-0 renal) was 3.7 µM. It also gave a GI50 (SNB-19 CNS) of 10 µM, a TGI (SNB-19 CNS) of 22.8 µM and a GI50 (IGROV1 ovarian) of 1.6 µM. It also gave a TGI (IGROV1 ovarian) of 3.22 µM, a GI50 (SW-620 colon) of 2.92 µM and a TGI (SW-620 colon) of 8.5 µM. The GI50 (UACC-62 melanoma) was 9.87 µM, the TGI (UACC-62 melanoma) was 21.9 µM and the GI50 (COLO 205 colon) was 1.95 µM. The TGI (COLO 205 colon) was 4.78 µM, the GI50 (DU-145 prostate) was 2.74 µM and the TGI (DU-145 prostate) was 10.1 µM. For the same compound, the GI50 (SK-MEL-28 melanoma) was 11.5 µM, the TGI (SK-MEL-28 melanoma) was 24.2 µM and the GI50 (SR leukemia) was 1.83 µM. It also gave a TGI (SR leukemia) of 4.89 µM, a GI50 (KM12 colon) of 2.09 µM and a TGI (KM12 colon) of 4.55 µM. The GI50 (RXF 393 renal) was 2.53 µM, the TGI (RXF 393 renal) was 5.08 µM and the GI50 (NCI-H226 lung) was 13.2 µM. For the same compound, the TGI (NCI-H226 lung) was 32.2 µM, the GI50 (T-47D breast) was 4.59 µM and the TGI (T-47D breast) was 22.4 µM. For the same compound, the GI50 (ACHN renal) was 4.64 µM, the TGI (ACHN renal) was 16.1 µM and the GI50 (SF-295 CNS) was 2 µM. The TGI (SF-295 CNS) was 4.15 µM, the GI50 (HCT-116 colon) was 1.79 µM and the TGI (HCT-116 colon) was 3.38 µM. It also gave a GI50 (HOP-92 NSCLC) of 2.53 µM, a TGI (HOP-92 NSCLC) of 13 µM and a GI50 (U251 CNS) of 2.03 µM. It also gave a TGI (U251 CNS) of 4.14 µM, a GI50 (K-562 leukemia) of 1.9 µM and a TGI (K-562 leukemia) of 4.87 µM. It also gave a GI50 (M14 melanoma) of 2.01 µM and a TGI (M14 melanoma) of 4.14 µM.
